Results published in the supplement of paper PMC10307832.

How the values were obtained:
Experiment in all cases: relative viability (nuclei count vs DMSO), 5 days (fraction); higher = more cells survive
Sulindac + OSI-027 = compound: CC1=C(CC(=O)O)c2cc(F)ccc2/C1=C\c1ccc([S+](C)[O-])cc1 [Sulindac] + COc1cccc2cc(-c3nc([C@H]4CC[C@H](C(=O)O)CC4)n4ncnc(N)c34)[nH]c12 [OSI-027] (partner 0.5 µM)
Method in brief: (§1)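 The day after seeding in 1536-well plates, lung cancer cell lines were treated by pin tool with a single drug, or with a fixed anchor-drug dose together with five library-drug doses (not always all listed) in √10 steps. After 5 days, a combined fix-and-stain solution (final 0.05% Triton X-100, 1% formaldehyde, 1 ug/ml Hoechst) was added. Nuclei counted on 4× images gave relative viability as treated counts over vehicle counts, reported as the median of duplicate plates.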

[1] = compound: O=c1[nH]cc(F)c(=O)[nH]1 [5-Fluorouracil] + O=C(CCCCCCC(=O)Nc1ccccc1)NO [Vorinostat] (partner 1 µM)
Method in brief: as §1

[2] = compound: CN[C@@H]1C[C@H]2O[C@@](C)([C@@H]1OC)n1c3ccccc3c3c4c(c5c6ccccc6n2c5c31)C(=O)NC4 [Staurosporine] + Cc1cc(Nc2cc(N3CCN(C)CC3)nc(Sc3ccc(NC(=O)C4CC4)cc3)n2)n[nH]1 [Tozasertib] (partner 0.1 µM)
Method in brief: as §1

[3] = compound: O=c1[nH]cc(F)c(=O)[nH]1 [5-Fluorouracil] + C[C@@H](Oc1cc(-c2cnn(C3CCNCC3)c2)cnc1N)c1c(Cl)ccc(F)c1Cl [Crizotinib] (partner 1 µM)
Method in brief: as §1

Cell Line | relative viability (Sulindac + OSI-027; first compound 0.08 µM) | relative viability (Sulindac + OSI-027; first compound 0.253 µM) | relative viability (Sulindac + OSI-027; first compound 0.8 µM) | relative viability (Sulindac + OSI-027; first compound 2.53 µM) | relative viability (Sulindac + OSI-027; first compound 8 µM) | relative viability ([1]; first compound 0.02 µM) | relative viability ([1]; first compound 0.2 µM) | relative viability ([1]; first compound 0.6325 µM) | relative viability ([1]; first compound 2 µM) | relative viability ([2]; first compound 0.005 µM) | relative viability ([2]; first compound 0.05 µM) | relative viability ([2]; first compound 0.1581 µM) | relative viability ([2]; first compound 0.5 µM) | relative viability ([3]; first compound 0.02 µM) | relative viability ([3]; first compound 0.2 µM) | relative viability ([3]; first compound 0.6325 µM) | relative viability ([3]; first compound 2 µM) | relative viability ([2]; first compound 0.01581 µM)
NCI-H522 | 0.788 | 0.777 | 0.666 | 0.62 | 0.645 | 0.884 | 1.02 | 0.982 | 0.81 | 0.541 | 0.492 | 0.433 | 0.486 | – | – | – | – | –
NCI-H1944 | 0.424 | 0.43 | 0.353 | 0.421 | 0.412 | 0.5 | 0.372 | 0.201 | 0.164 | 0.255 | 0.206 | 0.161 | 0.155 | 0.993 | 0.92 | 0.392 | 0.193 | 0.21
PC-14 | 1.3 | 1.2 | – | 0.886 | 1.09 | 0.82 | 0.635 | 0.623 | 0.355 | 0.514 | 0.0637 | 0.0512 | 0.0343 | 0.899 | 0.928 | 0.788 | 0.456 | 0.218
NCI-H1650 | 0.452 | 0.567 | – | 0.45 | 0.734 | 0.552 | 0.386 | 0.329 | 0.198 | 0.332 | 0.17 | 0.203 | 0.123 | 0.859 | 0.801 | 0.505 | 0.367 | 0.302
HCC-827 | 0.913 | 0.777 | 0.573 | 0.798 | 0.761 | 0.556 | 0.697 | 0.348 | 0.272 | 0.442 | 0.358 | 0.329 | 0.263 | 0.859 | 0.891 | 0.604 | 0.416 | 0.313
HCC-366 | 1.33 | 1.11 | 0.947 | 0.836 | 0.964 | 0.371 | 0.365 | 0.156 | 0.0639 | 0.144 | 0.0425 | 0.0279 | 0.0464 | 0.71 | 0.531 | 0.224 | 0.0745 | –
HARA | 0.553 | 0.549 | 0.447 | 0.488 | 0.602 | 0.517 | 0.39 | 0.281 | 0.16 | 0.102 | 0.0638 | 0.0719 | 0.0716 | 1.4 | 1.04 | 1.06 | 1.08 | –
NCI-H441 | 0.627 | 0.597 | 0.416 | 0.679 | 0.759 | 0.862 | 0.581 | 0.327 | – | 0.392 | 0.231 | 0.195 | 0.208 | 0.511 | 0.767 | 0.388 | 0.333 | 0.379
LXF-289 | 0.829 | 0.863 | 0.749 | 0.753 | 0.844 | 0.708 | 0.67 | 0.383 | 0.309 | 0.0996 | 0.0495 | 0.0532 | 0.0507 | 0.793 | 0.574 | 0.338 | 0.277 | 0.072
SK-LU-1 | 0.305 | 0.343 | 0.295 | 0.316 | 0.351 | 0.705 | 0.885 | 0.744 | 0.681 | 0.168 | – | 0.133 | 0.0818 | 0.98 | 0.977 | 0.918 | 0.74 | 0.115
